Values of other authors, collected in US20080089854A1, “Skin care compositions” (priority 2006, published 2008).

How the values were obtained:
[1] = topical application
[2] = animal studies

share of topically applied azelaic acid that is absorbed [1]: about 3.6%
SMILES: O=C(O)CCCCCCCC(=O)O [azelaic acid]
adverse effects on fertility or reproduction [2]: no adverse effects
